We go through 22 compounds from patent publication US20100093702A1, “METHYLENE AMINES OF THIENO[2,3-d]PYRIMIDINE AND THEIR USE AS ADENOSINE A2a RECEPTOR ANTAGONISTS” (priority 2008, published 2010).

Assay [1] addresses T1, human adenosine A2a receptor (Homo sapiens, UniProt P29274).
T1 construct: expressed in transfected cells; host or cells: CHO-K1
Nature of the assay: Adenosine A2a Receptor Functional Assay (A2AGAL2). The class given is cell-based. Particulars: CHO-K1 cells, cAMP inducible beta-galactosidase reporter, 15 nM NECA agonist challenge. The procedure: Adenosine A2a Receptor Functional Assay (A2AGAL2)
To initiate the functional assay, cryopreserved CHO-K1 cells overexpressing the human adenosine A2a receptor and containing a cAMP inducible beta-galactosidase reporter gene were thawed, centrifuged, DMSO containing media removed, and then seeded with fresh culture media into clear 384-well tissue culture treated plates (BD #353961) at a concentration of 10K cells/well. Prior to assay, these plates were cultured for two days at 37° C., 5% CO2, 90% Rh. On the day of the functional assay, culture media was removed and replaced with 45 uL assay medium (Hams/F-12 Modified (Mediatech # 10-080CV) supplemented w/0.1% BSA). Test compounds were diluted and 11 point curves created at a 1000× concentration in 100% DMSO. Immediately after addition of assay media to the cell plates, 50 nL of the appropriate test compound antagonist or agonist control curves were added to cell plates using a Cartesian Hummingbird. Compound curves were allowed to incubate at room temperature on cell plates for approximately 15 minutes before addition of a 15 nM NECA (Sigma E2387) agonist challenge (5 uL volume). A control curve of NECA, a DMSO/Media control, and a single dose of Forskolin (Sigma F3917) were also included on each plate. After additions, cell plates were allowed to incubate at 37° C., 5% CO2, 90% Rh for 5.5-6 hours. After incubation, media was removed, and cell plates were washed 1×50 uL with DPBS w/o Ca & Mg (Mediatech 21-031-CV). Into dry wells, 20 uL of 1× Reporter Lysis Buffer (Promega E3971 (diluted in dH2O from 5× stock)) was added to each well and plates frozen at −20° C. overnight. For β-galactosidase enzyme calorimetric assay, plates were thawed out at room temperature and 20 μL 2× assay buffer (Promega) was added to each well. Color was allowed to develop at 37° C., 5% CO2, 90% Rh for 1-1.5 h or until reasonable signal appeared. The calorimetric reaction was stopped with the addition of 60 μL/well 1M sodium carbonate. Plates were counted at 405 nm on a SpectraMax Microplate Reader (Molecular Devices). Data was analyzed in Microsoft Excel and IC/EC50 curves were fit using a standardized macro.

Assay [2] concerns the target T2, human adenosine A1 receptor (Homo sapiens, UniProt P30542).
T2 construct: expressed in transfected cells; host or cells: CHO-K1
T2 sequence (P30542 1-326): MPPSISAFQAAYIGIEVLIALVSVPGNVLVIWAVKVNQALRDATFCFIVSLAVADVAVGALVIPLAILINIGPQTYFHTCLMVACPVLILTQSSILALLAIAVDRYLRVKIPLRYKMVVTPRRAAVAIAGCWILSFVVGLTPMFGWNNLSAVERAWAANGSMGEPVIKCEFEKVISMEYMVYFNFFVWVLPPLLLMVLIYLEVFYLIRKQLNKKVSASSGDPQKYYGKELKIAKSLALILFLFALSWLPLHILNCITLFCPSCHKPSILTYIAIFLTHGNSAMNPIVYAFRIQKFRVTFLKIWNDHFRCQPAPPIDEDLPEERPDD
Nature of the assay: Adenosine A1 Receptor Functional Assay (A1GAL2). The class given is cell-based. Particulars: CHO-K1 cells, cAMP inducible beta-galactosidase reporter, 4 nM r-PIA/1 uM Forskolin challenge. The procedure:
Adenosine A1 Receptor Functional Assay (A1GAL2)
To initiate the functional assay, cryopreserved CHO-K1 cells overexpressing the human adenosine A1 receptor and containing a cAMP inducible beta-galactosidase reporter gene were thawed, centrifuged, DMSO containing media removed, and then seeded with fresh culture media into clear 384-well tissue culture treated plates (BD #353961) at a concentration of 10K cells/well. Prior to assay, these plates were cultured for two days at 37° C., 5% CO2, 90% Rh. On the day of the functional assay, culture media was removed and replaced with 45 uL assay medium (Hams/F-12 Modified (Mediatech # 10-080CV) supplemented w/0.1% BSA). Test compounds were diluted and 11 point curves created at a 1000× concentration in 100% DMSO. Immediately after addition of assay media to the cell plates, […] of the appropriate test compound antagonist or agonist control curves were added to cell plates using a Cartesian Hummingbird. Compound curves were allowed to incubate at room temperature on cell plates for approximately 15 minutes before addition of a 4 nM r-PIA (Sigma P4532)/1 uM Forskolin (Sigma F3917) agonist challenge (5 uL volume). A control curve of r-PIA in 1 uM Forskolin, a DMSO/Media control, and a single dose of Forskolin were also included on each plate. After additions, cell plates were allowed to incubate at 37° C., 5% CO2, 90% Rh for 5.5-6 hours. After incubation, media was removed, and cell plates were washed 1×50 uL with DPBS w/o Ca & Mg (Mediatech 21-031-CV).
Into dry wells, 20 uL of 1× Reporter Lysis Buffer (Promega E3971 (diluted in dH2O from 5× stock)) was added to each well and plates frozen at −20° C. overnight. For β-galactosidase enzyme calorimetric assay, plates were thawed out at room temperature and 20 μL 2× assay buffer (Promega) was added to each well. Color was allowed to develop at 37° C., 5% CO2, 90% Rh for 1-1.5 h or until reasonable signal appeared. The calorimetric reaction was stopped with the addition of 60 μL/well 1M sodium carbonate. Plates were counted at 405 nm on a SpectraMax Microplate Reader (Molecular Devices). Data was analyzed in Microsoft Excel and IC/EC50 curves were fit using a standardized macro.

T1 sequence (P29274 whole entry): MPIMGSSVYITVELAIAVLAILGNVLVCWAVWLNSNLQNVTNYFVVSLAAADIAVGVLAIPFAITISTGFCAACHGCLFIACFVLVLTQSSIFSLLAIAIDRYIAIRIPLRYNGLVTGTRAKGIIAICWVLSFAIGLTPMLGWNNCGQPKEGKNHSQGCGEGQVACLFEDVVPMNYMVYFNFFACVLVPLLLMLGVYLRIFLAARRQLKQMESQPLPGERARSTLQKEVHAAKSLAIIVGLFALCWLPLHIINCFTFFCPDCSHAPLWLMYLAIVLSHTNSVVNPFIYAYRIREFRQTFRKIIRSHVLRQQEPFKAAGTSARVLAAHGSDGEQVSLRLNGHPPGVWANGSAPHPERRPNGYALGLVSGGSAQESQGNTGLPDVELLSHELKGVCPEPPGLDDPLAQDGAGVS

`Nc1nc(-c2cc(F)cc(F)c2)nc2sc(CN3CCC(F)CC3)cc12` [Example 55, 2-(3,5-Difluoro-phenyl)-6-(4-fluoro-piperidin-1-ylmethyl)-thieno[2,3-d]pyrimidin-4-ylamine]: the inhibitory constant (Ki) amounted to 1060 nM in assay [1] and 3410 nM in assay [2].
On the same counts, the results for `Nc1nc(-c2cccc(F)c2)nc2sc(CN3CCSCC3)cc12` [Example 58, 2-(3-Fluoro-phenyl)-6-thiomorpholin-4-ylmethyl-thieno[2,3-d]pyrimidin-4-ylamine] are 73.6 nM and 331 nM.
For the compound `Nc1nc(-c2cc3ccccc3o2)nc2sc(CN3CCC(F)CC3)cc12` [Example 59, 2-Benzofuran-2-yl-6-(4-fluoropiperidin-1-ylmethyl)thieno[2,3-d]pyrimidin-4-ylamine], the Ki in assay [1] worked out at 348 nM; in assay [2], 634 nM.
On the same counts, the results for `Nc1nc(-c2cccc(F)c2)nc2sc(CN3CCC(F)CC3)cc12` [Example 60, 2-(3-Fluoro-phenyl)-6-(4-fluoro-piperidin-1-ylmethyl)-thieno[2,3-d]pyrimidin-4-ylamine] are 300 nM and 1250 nM.
On the same counts, the results for `Nc1nc(-c2cccc(F)c2)nc2sc(CN3CCOCC3)cc12` [Example 61, 2-(3-Fluoro-phenyl)-6-morpholin-4-ylmethyl-thieno[2,3-d]pyrimidin-4-ylamine] are 123 nM and 616 nM.
On the same counts, the results for `N#Cc1ccc(-c2nc(N)c3cc(CN4CCC(F)CC4)sc3n2)cc1` [Example 66, 4-[4-Amino-6-(4-fluoro-piperidin-1-ylmethyl)-thieno[2,3-d]pyrimidin-2-yl]-benzonitrile] are 1390 nM and 8430 nM.
For `N#Cc1ccc(-c2nc(N)c3cc(CN4CCCCCC4)sc3n2)cc1` [Example 67, 4-(4-Amino-6-azepan-1-ylmethyl-thieno[2,3-d]pyrimidin-2-yl)-benzonitrile], the Ki in assay [1] came to 384 nM; in assay [2] it was 8550 nM.
On the same counts, the results for `COc1cccc(-c2nc(N)c3cc(CN4CCC(F)CC4)sc3n2)c1` [Example 71, 6-(4-Fluoro-piperidin-1-ylmethyl)-2-(3-methoxy-phenyl)-thieno[2,3-d]pyrimidin-4-ylamine] are 303 nM and 3220 nM.
As to `N#Cc1ccc(-c2nc(N)c3cc(CN4CCC(F)CC4)sc3n2)s1` [Example 72, 5-[4-Amino-6-(4-fluoro-piperidin-1-ylmethyl)-thieno[2,3-d]pyrimidin-2-yl]-thiophene-2-carbonitrile], the results for the Ki in assay [1] and in assay [2] were 91.3 nM and 1910 nM, respectively.
Turning to `Nc1nc(-c2ncco2)nc2sc(CN3CCOCC3)cc12` [Example 75, 6-Morpholin-4-ylmethyl-2-oxazol-2-yl-thieno[2,3-d]pyrimidin-4-ylamine], the Ki was determined as 356 nM in assay [1] and 3250 nM in assay [2].
On the same counts, the results for `Nc1nc(-c2ccc3c(c2)OCO3)nc2sc(CN3CCC(F)CC3)cc12` [Example 76, 2-Benzo[1,3]dioxol-5-yl-6-(4-fluoro-piperidin-1-ylmethyl)-thieno[2,3-d]pyrimidin-4-ylamine] are 209 nM and 740 nM.
On the same counts, the results for `Nc1nc(-c2ccc[nH]2)nc2sc(CN3CCC(F)CC3)cc12` [Example 81, 6-(4-Fluoro-piperidin-1-ylmethyl)-2-(1H-pyrrol-2-yl)-thieno[2,3-d]pyrimidin-4-ylamine] are 795 nM and 3890 nM.
Regarding `COc1cccc(-c2nc(N)c3cc(CN4CCOCC4)sc3n2)c1` [Example 84, 2-(3-Methoxy-phenyl)-6-morpholin-4-ylmethyl-thieno[2,3-d]pyrimidin-4-ylamine], the Ki in assay [1] amounted to 373 nM; in assay [2], 2990 nM.
Consider `N#Cc1cncc(-c2nc(N)c3cc(CN4CCC(F)CC4)sc3n2)c1` [Example 87, 5-[4-Amino-6-(4-fluoro-piperidin-1-ylmethyl)-thieno[2,3-d]pyrimidin-2-yl]-nicotinonitrile], for which the inhibition constant (Ki) in assay [1] was 6620 nM; in assay [2], more than 10000 nM.
On the same counts, the results for `Nc1nc(-c2ccco2)nc2sc(CN3CCC(F)(F)C3)cc12` [Example 94, 6-(3,3-Difluoro-pyrrolidin-1-ylmethyl)-2-furan-2-yl-thieno[2,3-d]pyrimidin-4-ylamine] are 8.23 nM and 1240 nM.
On the same counts, the results for `Nc1nc(-c2ccc(C(F)F)o2)nc2sc(CN3CCC(F)(F)CC3)cc12` [Example 99, 2-(5-Difluoromethyl-furan-2-yl)-6-(4,4-difluoro-piperidin-1-ylmethyl)-thieno[2,3-d]pyrimidin-4-ylamine] are 610 nM and 17800 nM.
On to `Nc1nc(-c2ccc(C(F)F)o2)nc2sc(CN3CCC(F)CC3)cc12` [Example 100, 2-(5-Difluoromethyl-furan-2-yl)-6-(4-fluoro-piperidin-1-ylmethyl)-thieno[2,3-d]pyrimidin-4-ylamine], for which the inhibitory constant (Ki) worked out at 42.4 nM in assay [1] and 1670 nM in assay [2].
On the same counts, the results for `Nc1nc(-c2ccc(C(F)F)o2)nc2sc(CN3CCCC(F)(F)C3)cc12` [Example 101, 2-(5-Difluoromethyl-furan-2-yl)-6-(3,3-difluoro-piperidin-1-ylmethyl)-thieno[2,3-d]pyrimidin-4-ylamine] are 42.5 nM and 2100 nM.
On the same counts, the results for `C[C@@H]1CCC[C@H](C)N1Cc1cc2c(N)nc(-c3ccc(C(F)F)o3)nc2s1` [Example 102, 2-(5-Difluoromethyl-furan-2-yl)-6-(2,6-dimethyl-piperidin-1-ylmethyl)-thieno[2,3-d]pyrimidin-4-ylamine] are 27.6 nM and 732 nM.
On the same counts, the results for `CCN(CC)Cc1cc2c(N)nc(-c3ccc(C(F)F)o3)nc2s1` [Example 103, 6-Diethylaminomethyl-2-(5-difluoromethyl-furan-2-yl)-thieno[2,3-d]pyrimidin-4-ylamine] are 131 nM and 2090 nM.
For `Nc1nc(-c2ccnc(Cl)c2)nc2sc(CN3CCCCC3)cc12` [Example 104, 2-(2-Chloro-pyridin-4-yl)-6-piperidin-1-ylmethyl-thieno[2,3-d]pyrimidin-4-ylamine], the inhibitory constant (Ki) worked out at 691 nM in assay [1] and 3860 nM in assay [2].
On the same counts, the results for `Nc1nc(-c2cccc(O)c2)nc2sc(CN3CCOCC3)cc12` [Example 106, 3-(4-Amino-6-morpholin-4-ylmethyl-thieno[2,3-d]pyrimidin-2-yl)-phenol] are 816 nM and 2440 nM.

As usually defined, the Ki is the dissociation constant of the complex between target and ligand, obtained from inhibition or displacement.
